Tests used:
Format in all cases: in vivo
[1] = test system: pigweed (Amaranthus retroflexus); assay: Test A greenhouse herbicide test, pre- and postemergence
Outline: (§1)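 Visual injury ratings, 0 (no effect) to 100 (complete control), versus untreated plants after roughly 10 d in a greenhouse. Compounds, formulated in a surfactant-containing non-phytotoxic solvent, were sprayed on loam–sand soil after sowing (pre) or on one- to two-leaf plants 2–10 cm tall (post).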

[2] = test system: ryegrass, Italian (Italian ryegrass, Lolium multiflorum); assay: as above
Outline: as §1

[3] = test system: wheat (Triticum aestivum); assay: as above; conditions: Postemergence
Outline: as §1

[4] = test system: blackgrass (Alopecurus myosuroides); assay: Test A greenhouse herbicide test, postemergence
Outline: (§2)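 Seedlings in a loam soil and sand mix received formulated compound postemergence at the one- to two-leaf stage. Greenhouse holding lasts approximately 10 d, then injury is scored visually relative to untreated plants, 0 meaning no effect and 100 complete control.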

[5] = test system: galium (catchweed bedstraw, Galium aparine); assay: Test A greenhouse herbicide test, postemergence
Outline: as §2

[6] = test system: lambsquarters (Chenopodium album); assay: Test C greenhouse herbicide test, pre- and postemergence
Outline: (§3)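 Visual 0–100 injury score (100 = complete control) taken against untreated controls after 13–15 d in greenhouse. Test chemicals, formulated in solvent plus surfactant, applied preemergence to seeds in loam–sand soil or postemergence to 1- to 4-leaf plants (2–18 cm).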

[7] = test system: morningglory (Ipomoea coccinea); assay: as above
Outline: as §3

[8] = test system: oilseed rape (Brassica napus); assay: as above
Outline: as §3

[9] = test system: pigweed (Amaranthus retroflexus); assay: as above
Outline: as §3

[10] = test system: ragweed (common ragweed, Ambrosia elatior); assay: as above
Outline: as §3

[11] = test system: waterhemp (common waterhemp, Amaranthus rudis); assay: as above
Outline: as §3

[12] = Postemergence, 125 g ai/ha, 0 to 100 scale where 0 is no effect and 100 is complete control
[13] = Postemergence, 500 g ai/ha, visual rating after approx. 10 d, 0 to 100 scale (0 no effect, 100 complete control)
[14] = Preemergence, 125 g ai/ha, 0 to 100 scale where 0 is no effect and 100 is complete control
[15] = Preemergence, 500 g ai/ha, 0 to 100 scale where 0 is no effect and 100 is complete control
[16] = 125 g ai/ha, 0 to 100 scale where 0 is no effect and 100 is complete control
[17] = 500 g ai/ha, visual rating after approx. 10 d, 0 to 100 scale (0 no effect, 100 complete control)
[18] = Preemergence, 31 g ai/ha, scale 0 to 100, 0 is no effect, 100 is complete control
[19] = Preemergence, 62 g ai/ha, scale 0 to 100, 0 is no effect, 100 is complete control
[20] = Preemergence, 125 g ai/ha, scale 0 to 100, 0 is no effect, 100 is complete control
[21] = Preemergence, 250 g ai/ha, scale 0 to 100, 0 no effect, 100 complete control
[22] = Postemergence, 31 g ai/ha, scale 0 to 100 (0 no effect, 100 complete control)
[23] = Postemergence, 125 g ai/ha, scale 0 to 100, 0 is no effect, 100 is complete control
[24] = Postemergence, 250 g ai/ha, scale 0 to 100, 0 no effect, 100 complete control, 13 to 15 d
[25] = Postemergence, 62 g ai/ha, 0 to 100 scale (0 no effect, 100 complete control)

In the case of `CC(=O)Oc1c(Cl)nn(C)c(=O)c1-c1c(C)sc2ccc(Cl)cc12` [Compound 116], the “Plant response rating, Pigweed” value [1, 12] is reported as 70, the “Plant response rating, Pigweed” value [1, 13] is reported as 100 and the “Pigweed plant response rating” value [1, 14] is reported as 90. For the same compound, the “Plant response rating, Pigweed” value [1, 15] was 90, the “Plant response rating, Ryegrass, Italian” value [2, 12] was 90 and the “Plant response rating, Ryegrass, Italian” value [2, 13] was 100. For the same compound, the “Ryegrass, Italian plant response rating” value [2, 14] was 80, the “Plant response rating, Ryegrass, Italian” value [2, 15] was 100 and the “Plant response rating, Wheat” value [3, 16] was 20. The “Plant response rating, Wheat” value [3, 17] was 50, the “Plant response rating, Blackgrass” value [4, 16] was 30 and the “Plant response rating, Blackgrass” value [4, 17] was 70. The “Plant response rating, Galium” value [5, 16] was 70, the “Plant response rating, Galium” value [5, 17] was 100 and the “Plant response rating, Lambsquarters” value [6, 18] was 65. The “Plant response rating, Lambsquarters” value [6, 19] was 98, the “Plant response rating, Lambsquarters” value [6, 20] was 90 and the “Lambsquarters plant response rating” value [6, 21] was 95. For the same compound, the “Plant response rating, Morningglory” value [7, 18] was 55, the “Plant response rating, Morningglory” value [7, 19] was 80 and the “Plant response rating, Morningglory” value [7, 20] was 85. The “Morningglory plant response rating” value [7, 21] was 98, the “Plant response rating, Oilseed Rape” value [8, 18] was 85 and the “Plant response rating, Oilseed Rape” value [8, 19] was 80. For the same compound, the “Plant response rating, Oilseed Rape” value [8, 20] was 95, the “Oilseed Rape plant response rating” value [8, 21] was 100 and the “Plant response rating, Pigweed” value [9, 18] was 95. For the same compound, the “Plant response rating, Pigweed” value [9, 19] was 100, the “Plant response rating, Pigweed” value [9, 20] was 100 and the “Pigweed plant response rating” value [9, 21] was 100. For the same compound, the “Plant response rating, Ragweed” value [10, 18] was 85, the “Plant response rating, Ragweed” value [10, 19] was 90 and the “Plant response rating, Ragweed” value [10, 20] was 95. The “Ragweed plant response rating” value [10, 21] was 100, the “Plant response rating, Waterhemp” value [11, 18] was 55 and the “Plant response rating, Waterhemp” value [11, 19] was 70. The “Plant response rating, Waterhemp” value [11, 20] was 80 and the “Waterhemp plant response rating” value [11, 21] was 100.

In the case of `Cc1nn(C)c(=O)c(-c2c(C)sc3ccc(C(F)(F)F)cc23)c1O` [Compound 121], the “Plant response rating, Pigweed” value [1, 12] is reported as 90, the “Plant response rating, Pigweed” value [1, 13] is reported as 90 and the “Pigweed plant response rating” value [1, 14] is reported as 100. The “Plant response rating, Pigweed” value [1, 15] was 100, the “Plant response rating, Ryegrass, Italian” value [2, 12] was 90 and the “Plant response rating, Ryegrass, Italian” value [2, 13] was 100. The “Ryegrass, Italian plant response rating” value [2, 14] was 80, the “Plant response rating, Ryegrass, Italian” value [2, 15] was 90 and the “Plant response rating, Wheat” value [3, 16] was 0. For the same compound, the “Plant response rating, Wheat” value [3, 17] was 20, the “Plant response rating, Blackgrass” value [4, 16] was 20 and the “Plant response rating, Blackgrass” value [4, 17] was 50. The “Plant response rating, Galium” value [5, 16] was 70, the “Plant response rating, Galium” value [5, 17] was 90 and the “Plant response rating, Lambsquarters” value [6, 22] was 90. For the same compound, the “Plant response rating, Lambsquarters” value [6, 23] was 98, the “Plant response rating, Lambsquarters” value [6, 24] was 100 and the “Plant response rating, Lambsquarters” value [6, 18] was 60. For the same compound, the “Plant response rating, Lambsquarters” value [6, 19] was 80, the “Plant response rating, Lambsquarters” value [6, 20] was 98 and the “Lambsquarters plant response rating” value [6, 21] was 100. For the same compound, the “Plant response rating, Morningglory” value [7, 22] was 98, the “Plant response rating, Morningglory” value [7, 23] was 100 and the “Plant response rating, Morningglory” value [7, 24] was 98. For the same compound, the “Plant response rating, Morningglory” value [7, 18] was 25, the “Plant response rating, Morningglory” value [7, 19] was 55 and the “Plant response rating, Morningglory” value [7, 20] was 85. The “Morningglory plant response rating” value [7, 21] was 90, the “Plant response rating, Oilseed Rape” value [8, 22] was 70 and the “Plant response rating, Oilseed Rape” value [8, 23] was 85. The “Plant response rating, Oilseed Rape” value [8, 24] was 55, the “Plant response rating, Oilseed Rape” value [8, 18] was 0 and the “Plant response rating, Oilseed Rape” value [8, 19] was 85. For the same compound, the “Plant response rating, Oilseed Rape” value [8, 20] was 30, the “Oilseed Rape plant response rating” value [8, 21] was 85 and the “Plant response rating, Pigweed” value [9, 22] was 75. The “Plant response rating, Pigweed” value [9, 23] was 90, the “Plant response rating, Pigweed” value [9, 24] was 98 and the “Plant response rating, Pigweed” value [9, 18] was 100. The “Plant response rating, Pigweed” value [9, 19] was 98, the “Plant response rating, Pigweed” value [9, 20] was 90 and the “Pigweed plant response rating” value [9, 21] was 100. The “Plant response rating, Ragweed” value [10, 22] was 75, the “Plant response rating, Ragweed” value [10, 23] was 95 and the “Plant response rating, Ragweed” value [10, 24] was 98. The “Plant response rating, Ragweed” value [10, 18] was 35, the “Plant response rating, Ragweed” value [10, 19] was 95 and the “Plant response rating, Ragweed” value [10, 20] was 98. The “Ragweed plant response rating” value [10, 21] was 98, the “Plant response rating, Waterhemp” value [11, 22] was 60 and the “Plant response rating, Waterhemp” value [11, 23] was 75. For the same compound, the “Plant response rating, Waterhemp” value [11, 24] was 70, the “Plant response rating, Waterhemp” value [11, 18] was 70 and the “Plant response rating, Waterhemp” value [11, 19] was 95. For the same compound, the “Plant response rating, Waterhemp” value [11, 20] was 85 and the “Waterhemp plant response rating” value [11, 21] was 100.

In the case of `Cc1nn(C)c(=O)c(-c2cccc3ccc(Br)cc23)c1O` [Compound 126], the “Plant response rating, Pigweed” value [1, 12] is reported as 90, the “Plant response rating, Pigweed” value [1, 13] is reported as 100 and the “Pigweed plant response rating” value [1, 14] is reported as 100. The “Plant response rating, Pigweed” value [1, 15] was 100, the “Plant response rating, Ryegrass, Italian” value [2, 12] was 90 and the “Plant response rating, Ryegrass, Italian” value [2, 13] was 100. The “Ryegrass, Italian plant response rating” value [2, 14] was 90, the “Plant response rating, Ryegrass, Italian” value [2, 15] was 100 and the “Plant response rating, Wheat” value [3, 16] was 0. For the same compound, the “Plant response rating, Wheat” value [3, 17] was 20, the “Plant response rating, Blackgrass” value [4, 16] was 60 and the “Plant response rating, Blackgrass” value [4, 17] was 70. The “Plant response rating, Galium” value [5, 16] was 100, the “Plant response rating, Galium” value [5, 17] was 100 and the “Plant response rating, Lambsquarters” value [6, 22] was 80. The “Lambsquarters plant response rating” value [6, 25] was 95, the “Plant response rating, Lambsquarters” value [6, 23] was 95 and the “Plant response rating, Lambsquarters” value [6, 24] was 95. For the same compound, the “Plant response rating, Morningglory” value [7, 22] was 95, the “Morningglory plant response rating” value [7, 25] was 95 and the “Plant response rating, Morningglory” value [7, 23] was 98. The “Plant response rating, Morningglory” value [7, 24] was 98, the “Plant response rating, Oilseed Rape” value [8, 22] was 60 and the “Oilseed Rape plant response rating” value [8, 25] was 80. For the same compound, the “Plant response rating, Oilseed Rape” value [8, 23] was 60, the “Plant response rating, Oilseed Rape” value [8, 24] was 85 and the “Plant response rating, Pigweed” value [9, 22] was 85. For the same compound, the “Pigweed plant response rating” value [9, 25] was 90, the “Plant response rating, Pigweed” value [9, 23] was 95 and the “Plant response rating, Pigweed” value [9, 24] was 95. The “Plant response rating, Ragweed” value [10, 22] was 85, the “Ragweed plant response rating” value [10, 25] was 90 and the “Plant response rating, Ragweed” value [10, 23] was 95. The “Plant response rating, Ragweed” value [10, 24] was 95, the “Plant response rating, Waterhemp” value [11, 22] was 75 and the “Waterhemp plant response rating” value [11, 25] was 90. The “Plant response rating, Waterhemp” value [11, 23] was 95 and the “Plant response rating, Waterhemp” value [11, 24] was 100.

— patent US10597388B2, “Pyridazinone herbicides” (FMC CORPORATION, priority 2014, dated 2020)
